Consider 2 compounds from US20240325390A1 (Aerovate Therapeutics, Inc., priority 2020, published 2024).

Structures are written as SMILES. Counter-ions that a name gives are not always drawn. Like-named read-outs stand apart in the source and are kept apart here.

Data set [1] in a line: clinical. The settings on record: human, in vivo.
For data set [2] the following is noted: imatinib in plasma, MAD Day 7, mean.
A short description of data set [3]: clinical. The settings on record: human, plasma; for AUC / AUC(0-t) / Cmax: inhaled or intranasal; for Cmax / concentration at 7 day: imatinib in plasma, mean; for concentration at 7 day: inhaled.

Broadly, the AUC(0-t) is the area under the concentration-time curve up to a stated or last time point. Higher therefore signals more exposure. Usually Cmax stands for the peak of the concentration-time curve. In data set [1] (po, 400 mg), `Cc1ccc(NC(=O)c2ccc(CN3CCN(C)CC3)cc2)cc1Nc1nccc(-c2cccnc2)n1` [Imatinib, imatinib mesylate, reference compound] gave an AUC(0-t) of 32700 ng·h/mL and a Cmax of 1710 ng/mL.

For orientation: AUC means concentration integrated over time. Read a high AUC as more exposure. For orientation: Tmax means the time from dosing to the highest level. For the compound `Cc1ccc(NC(=O)c2ccc(CN3CCN(C)CC3)cc2)cc1Nc1nccc(-c2cccnc2)n1` [AV-101, imatinib], the Fluctuation was 78.28% in data set [2] (inhaled 10 mg AV-101 BID), 70.30% in data set [2] (inhaled 30 mg AV-101 BID) and 67.18% in data set [2] (inhaled 90 mg AV-101 BID). Also, the AUC came to 590 ng·h/mL in data set [3] (10 mg), 1920 ng·h/mL in data set [3] (30 mg) and 7970 ng·h/mL in data set [3] (90 mg). Also, the AUC(0-t) in data set [3] (10 mg) amounted to 182 ng·h/mL; in data set [3] (30 mg) it was 673 ng·h/mL; in data set [3] (90 mg) it was 2210 ng·h/mL; in data set [1] (inhaled or intranasal, 1 mg), 9.9 ng·h/mL; in data set [1] (inhaled or intranasal, 3 mg), 65.4 ng·h/mL; in data set [1] (inhaled or intranasal, 10 mg), 319 ng·h/mL. For the same compound, the AUC(0-t) in data set [1] (inhaled or intranasal, 30 mg) is 1280 ng·h/mL; in data set [1] (inhaled or intranasal, 90 mg), 6670 ng·h/mL. In addition, the maximum concentration (Cmax) in data set [3] (10 mg, MAD Day 1, inhaled 10 mg AV-101) was found to be 24.1 ng/mL; in data set [3] (10 mg, ss, MAD Day 7, inhaled 10 mg AV-101 BID), 69.2 ng/mL; in data set [3] (30 mg, MAD Day 1, inhaled 30 mg AV-101), 88.7 ng/mL; in data set [3] (30 mg, ss, MAD Day 7, inhaled 30 mg AV-101 BID), 215 ng/mL; in data set [3] (90 mg, MAD Day 1, inhaled 90 mg AV-101), 262 ng/mL; in data set [3] (90 mg, ss, MAD Day 7, inhaled 90 mg AV-101 BID), 890 ng/mL. The Cmax in data set [1] (inhaled or intranasal, 1 mg) came to 1.16 ng/mL; in data set [1] (inhaled or intranasal, 3 mg) it was 3.81 ng/mL; in data set [1] (inhaled or intranasal, 10 mg), 20.2 ng/mL; in data set [1] (inhaled or intranasal, 30 mg), 73.8 ng/mL; in data set [1] (inhaled or intranasal, 90 mg), 424 ng/mL. Further, the concentration at 7 day in data set [3] (10 mg, Cav, MAD Day 7, inhaled 10 mg AV-101 BID) is 49.1 ng/mL; in data set [3] (10 mg, Cmin, ss, MAD Day 7, inhaled 10 mg AV-101 BID) it was 31.7 ng/mL; in data set [3] (30 mg, Cav, MAD Day 7, inhaled 30 mg AV-101 BID), 160 ng/mL; in data set [3] (30 mg, Cmin, ss, MAD Day 7, inhaled 30 mg AV-101 BID) it was 118 ng/mL; in data set [3] (90 mg, Cav, MAD Day 7, inhaled 90 mg AV-101 BID), 664 ng/mL; in data set [3] (90 mg, Cmin, ss, MAD Day 7, inhaled 90 mg AV-101 BID), 534 ng/mL. The Tmax in data set [1] (inhaled or intranasal, 1 mg) is 3 h; in data set [1] (inhaled or intranasal, 10 mg), 0.18 h.
